US6506742B2, “Soluble contraceptive liquid formulation” (Ortho-McNeil Pharmaceutical, Inc., priority 1999, dated 2003)

Test: Stability study of oral contraceptive liquid formulation stored at room temperature, amount of contraceptive in solution
Type: physicochemical
Conditions: solubilized according to the process (EtOH/PEG 400/water)
From the text: A formulation as prepared in Examples 1 or 2, as shown in Table 3 were stored in a container at room temperature and tested periodically for the amount of contraceptive in solution. The reported figure of the contraceptives in solution is in percent of label claim.

In the case of `C#C[C@]1(O)CC[C@H]2[C@@H]3CCc4cc(O)ccc4[C@H]3CC[C@@]21C` [EE, ethinyl estradiol], the “solubility and stability in water” value is reported as “greatly increased”.

With `C#C[C@]1(OC(C)=O)CC[C@H]2[C@@H]3CCC4=CC(=NO)CC[C@@H]4[C@H]3CC[C@@]21CC` (mixture of isomers) [NGM, Norgestimate] the “solubility and stability in water” value was “greatly increased”.
